Patent US12233145B2, “Ultra-violet absorbing compounds” (CIIMAR—CENTRO DE INVESTIGACAO MARINHA E AMBIENTAL, priority 2018, dated 2025)

Experiments:
[1] = UV-Vis absorption of scytoneman-like compounds; format: physicochemical
Description: The compounds were isolated from cyanobacteria collected from a small saltern pond located just behind the primary dune in Mrizika, Morocco (GPS coordinates: 32.955807, −8.779638). […] To explore the chemodiversity of the mat, the biomass was freeze-dried (650 g, d.w.) and extracted using a dichloromethane/methanol mixture (2:1). The crude extract was then fractionated by vacuum liquid chromatography using a solvent gradient with increasing polarity from 100% hexanes to 100% ethyl acetate and then to 100% MeOH. […] The filtered solution was subfractionated through flash chromatography using a gradient of hexanes, ethyl acetate to methanol.

[2] = tested on: SY-SH5Y (neuroblastoma cell line); assay: Cytotoxicity tests using the MTT assay; format: cell-based; conditions: final concentration 10 μg mL^−1
Procedure: 1% DMSO (v/v) was used as negative control and 20% DMSO (v/v) as a positive control;
The pure compounds were also tested in cytotoxicity assays using the MTT assay.

[3] = tested on: Staphylococcus aureus (ATCC 29213); assay: Antimicrobial assay, disc diffusion method; format: cell-based; conditions: final concentration of 15 μg mL^−1; S. aureus ATCC 29213
Procedure: Kanamycin and ampicillin (15 μg) were used as positive controls.
The pure compounds were also tested in antimicrobial assays using the disc diffusion method. […] Apart from its sunscreen function, the previously known scytonemins have been associated with anticancer and antioxidative activity, but no antimicrobial activity has ever been reported for any of the scytoneman family of compounds until now.

cyanobacteria = conditions: cited from earlier work
[4] = Table 1, identification by LC-HRMS analysis

| Substance | Main absorbance regions [1, 4] | Main absorbance regions ([1]; Table 2, UV-Vis spectra) | Max wavelength ([1]; maximum absorption wavelengths, UV-Vis spectra) | cell viability ([2]; 24 h of exposure) | cell viability ([2]; 48 h of exposure) | antimicrobial activity [3] | reduction of the UV-A radiation that penetrates the cells (cyanobacteria) |
| --- | --- | --- | --- | --- | --- | --- | --- |
| 3,3′-dihydroxyscytonemin [585.2061] | UVB | UVB | 293 nm |  |  |  |  |
| 3′-hydroxy-3-methoxyscytonemin [595.1864] | Green/blue | Green/blue |  |  |  |  |  |
| 3′-hydroxyscytonemin | UVA | UVA |  | 37.8% | 18.3% | presented antimicrobial activity |  |
| scytonemin |  |  |  |  |  |  | up to 90% |
